What was measured:
[1] = AUC in Kunming mouse plasma at 10 mg/kg, iv administered as single dose measured after 5 to 360 mins by HPLC analysis; assay type: ADME, organism-based; set-up: time upper 360 min, time lower 5 min, dose 10 mg/kg, route iv
[2] = Cytotoxicity against human HEK293T cells measured after 72 hrs by MTT assay; assay type: toxicity, cell-based, HEK-293T
[3] = In vivo acute toxicity in Balb/C mouse assessed as pathological damage in lung at 50 mg/kg, iv administered once per 2 days for 7 days measured 24 hrs after last dose by H and E staining method; assay type: organism-based; conditions: 168 h, time 7 day
A-375 = experiment: Induction of apoptosis in human A-375 cells assessed as increase in expression level of C-caspase-8 measured after 24 hrs by Western blotting analysis; assay type: functional, cell-based; conditions: dose 40-120 nM, DDE = dose-dependent effect
Calf thymus DNA = experiment: Binding affinity to calf thymus DNA assessed as intercalation by measuring hypochromic shift at 432 nm by […]; assay type: nucleic-acid assay; conditions: Bos taurus

**Q.** For O=C1c2c[n+]([O-])c3ccccc3c2C(=O)c2c1c1ccccc1n2Cc1cn([C@@H]2C[C@H](O)[C@@H](CO)O2)nn1, which AUC [1] is on record?
**A.** 48000 ng·h/mL

**Q.** And the IC50 at 72 h [2]?
**A.** 820 nM

**Q.** What about the Activity [3] of the same compound?
**A.** Non-Toxic

**Q.** And the Activity (A-375)?
**A.** Dde

**Q.** What about the Activity (Calf thymus DNA) of the same compound?
**A.** 32%

From ChEMBL document CHEMBL5154929, “Optimization of the Natural Product Calothrixin A to Discover Novel Dual Topoisomerase I and II Inhibitors with Improved Anticancer Activity” (J Med Chem, 2022)
